These results are taken from PubChem BioAssay AID328 (DTP/NCI, 2004).

The test system of this assay is BDF1 mice, P388 leukemia ip, median survival T/C. The experiment in a line: NCI In Vivo Anticancer Drug Screen. Data for tumor model P388 Leukemia (intraperitoneal) in B6D2F1 (BDF1) mice. As to conditions: endpoint: median survival time, higher = longer survival. An outline of the steps: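 Transplantable tumour in mice; compound vs vehicle dosing; survival scored; ratio of treated to control reported.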

[1] abbreviates: dose: 50.0 mg/kg/injection, schedule: Q01DX009 (ip), vehicle: saline with Tween-80.
Where [2] appears, read: dose: 100.0 mg/kg/injection, schedule: Q01DX009 (ip), vehicle: saline with Tween-80.
Setting [3] is: dose: 200.0 mg/kg/injection, schedule: Q01DX009 (ip), vehicle: saline with Tween-80.
[4] abbreviates: dose: 100.0 mg/kg/injection, schedule: Q04DX003 (ip), vehicle: Klucel (hydroxypropylcellulose) (HPC).
Setting [5] is: dose: 200.0 mg/kg/injection, schedule: Q04DX003 (ip), vehicle: Klucel (hydroxypropylcellulose) (HPC).
Setting [6] is: dose: 400.0 mg/kg/injection, schedule: Q04DX003 (ip), vehicle: Klucel (hydroxypropylcellulose) (HPC).
Setting [7] is: dose: 100.0 mg/kg/injection, schedule: Q04DX003 (ip), vehicle: saline with Tween-80.
Where [8] appears, read: dose: 200.0 mg/kg/injection, schedule: Q04DX003 (ip), vehicle: saline with Tween-80.

Where “and” joins values, the source holds several entries; their conditions need not be identical. Equal values may be shown once. Inconclusive results and toxic doses are left out.

Consider `CCCCCC1c2c(cc(C)[nH]c2=O)OC(O)C1CCCC` (centres undefined), for which the T/C is 93 % of control under setting [1], 90 % of control under setting [2] and 94 % of control under setting [3].
As to `CC[N+](CC)(CC)CCCCCCCCCC[N+](CC)(CC)CC`, the T/C reads like this: (dose: 0.25 mg/kg/injection, schedule: Q01DX009 (ip), vehicle: water) 91 % of control; (dose: 0.39 mg/kg/injection, schedule: Q04DX003 (ip), vehicle: water) 102 % of control and 107 % of control; (dose: 0.5 mg/kg/injection, schedule: Q01DX009 (ip), vehicle: water) 112 % of control; (dose: 0.5 mg/kg/injection, schedule: Q04DX003 (ip), vehicle: saline with Tween-80) 92 % of control; (dose: 0.78 mg/kg/injection, schedule: Q04DX003 (ip), vehicle: saline with Tween-80) 100 % of control; (dose: 0.78 mg/kg/injection, schedule: Q04DX003 (ip), vehicle: water) 98 % of control and 120 % of control. Also, the T/C runs as follows: (dose: 1.0 mg/kg/injection, schedule: Q01DX009 (ip), vehicle: water) 91 % of control and 105 % of control; (dose: 1.0 mg/kg/injection, schedule: Q04DX003 (ip), vehicle: saline with Tween-80) 92 % of control; (dose: 1.56 mg/kg/injection, schedule: Q04DX003 (ip), vehicle: water) 95 % of control and 104 % of control.
As for `NC1=C(c2ccccc2)C(=O)c2ccccc21`, the T/C was 104 % of control under setting [4], 109 % of control under setting [5] and 109 % of control under setting [6].
Take `CC(=O)OC1CC2CC1C1C3C=CC(C3)C21` (centres undefined): the T/C under setting [2] is 109 % of control.
For the compound `Oc1cccnc1CN1CCCCC1`, the T/C was 103 % of control (dose: 6.25 mg/kg/injection, schedule: Q01DX009 (ip), vehicle: saline); 111 % of control (dose: 12.5 mg/kg/injection, schedule: Q01DX009 (ip), vehicle: saline); 107 % of control (dose: 25.0 mg/kg/injection, schedule: Q01DX009 (ip), vehicle: saline); 88 % of control (dose: 50.0 mg/kg/injection, schedule: Q01DX009 (ip), vehicle: saline).
For `c1ccc([P+](CCCCCCCCCC[P+](c2ccccc2)(c2ccccc2)c2ccccc2)(c2ccccc2)c2ccccc2)cc1`, the T/C (dose: 2.5 mg/kg/injection, schedule: Q01DX010 (ip), vehicle: saline) is 100 % of control and the T/C (dose: 5.0 mg/kg/injection, schedule: Q01DX010 (ip), vehicle: saline) is 109 % of control.
For `S=c1[nH]nc(NC2CCCCC2)s1`, the T/C was 100 % of control (dose: 25.0 mg/kg/injection, schedule: Q01DX001 (ip), vehicle: Klucel (hydroxypropylcellulose) (HPC)); 112 % of control (dose: 50.0 mg/kg/injection, schedule: Q01DX001 (ip), vehicle: Klucel (hydroxypropylcellulose) (HPC)); 87 % of control (dose: 100.0 mg/kg/injection, schedule: Q01DX001 (ip), vehicle: Klucel (hydroxypropylcellulose) (HPC)).
For `CCOC(C)C(/C=N/NC(N)=S)=NNC(N)=S` (centres undefined), the T/C by setting is: (dose: 25.0 mg/kg/injection, schedule: Q01DX009 (ip), vehicle: Klucel (hydroxypropylcellulose) (HPC)) 110 % of control; (dose: 50.0 mg/kg/injection, schedule: Q01DX009 (ip), vehicle: Klucel (hydroxypropylcellulose) (HPC)) 115 % of control; under setting [1], 107 % of control; under setting [2], 96 % of control; under setting [4], 109 % of control; under setting [7], 86 % of control. The T/C reads like this: (dose: 150.0 mg/kg/injection, schedule: Q01DX009 (ip), vehicle: Klucel (hydroxypropylcellulose) (HPC)) 110 % of control; (dose: 200.0 mg/kg/injection, schedule: Q01DX009 (ip), vehicle: Klucel (hydroxypropylcellulose) (HPC)) 122 % of control; under setting [5], 100 % of control; under setting [8], 91 % of control; under setting [6], 104 % of control.
On to `C=C1N(c2nc(Cl)nc(Cl)n2)c2ccccc2C1(C)C`, for which the T/C reads like this: (dose: 12.5 mg/kg/injection, schedule: Q01DX009 (ip), vehicle: saline with Tween-80) 109 % of control and 111 % of control; (dose: 25.0 mg/kg/injection, schedule: Q01DX009 (ip), vehicle: saline with Tween-80) 108 % of control and 112 % of control; under setting [1], 116 % of control.
As to `CCCOP(=S)(N1CC1(C)C)N1CC1(C)C` (centres undefined), the T/C is 168 % of control (dose: 66.0 mg/kg/injection, schedule: Q01DX009 (ip), vehicle: saline with Tween-80); 209 % of control and 222 % of control under setting [2]; 116 % of control under setting [7]; 108 % of control under setting [8].
As to `COc1ccc(CCC(C)=O)cc1`, the T/C (dose: 100.0 mg/kg/injection, schedule: Q01DX009 (ip), vehicle: Klucel (hydroxypropylcellulose) (HPC)) is 100 % of control; the T/C under setting [4] was 95 % of control; the T/C under setting [5] was 110 % of control; the T/C (dose: 400.0 mg/kg/injection, schedule: Q01DX009 (ip), vehicle: Klucel (hydroxypropylcellulose) (HPC)) was 109 % of control; the T/C under setting [6] is 105 % of control.
On to `CC(=O)c1c(-c2ccccc2)noc1C`, for which the T/C runs as follows: under setting [7], 98 % of control; under setting [8], 90 % of control; (dose: 400.0 mg/kg/injection, schedule: Q04DX003 (ip), vehicle: saline with Tween-80) 100 % of control.
Regarding `C=C(C)C(=O)OC1CC2=CC(CC3(C)OC3C3OC(=O)C(=C)C13)OC2=O` (centres undefined), the T/C (dose: 4.5 mg/kg/injection, schedule: Q01DX009 (ip), vehicle: Klucel (hydroxypropylcellulose) (HPC)) is 101 % of control; the T/C (dose: 18.0 mg/kg/injection, schedule: Q01DX009 (ip), vehicle: Klucel (hydroxypropylcellulose) (HPC)) was 106 % of control; the T/C (dose: 36.0 mg/kg/injection, schedule: Q01DX009 (ip), vehicle: Klucel (hydroxypropylcellulose) (HPC)) was 117 % of control.
For the compound `CN(C)c1ccc(C(N)=O)cn1`, the T/C was 95 % of control (dose: 0.51 mg/kg/injection, schedule: Q01DX009 (ip), vehicle: saline); 115 % of control (dose: 1.03 mg/kg/injection, schedule: Q01DX009 (ip), vehicle: saline); 90 % of control (dose: 2.0 mg/kg/injection, schedule: Q01DX009 (ip), vehicle: saline); 100 % of control (dose: 2.06 mg/kg/injection, schedule: Q01DX009 (ip), vehicle: saline); 100 % of control (dose: 3.0 mg/kg/injection, schedule: Q04DX003 (ip), vehicle: saline); 100 % of control (dose: 3.13 mg/kg/injection, schedule: Q01DX009 (ip), vehicle: saline). The T/C was 112 % of control (dose: 4.12 mg/kg/injection, schedule: Q01DX009 (ip), vehicle: saline); 86 % of control (dose: 4.7 mg/kg/injection, schedule: Q01DX009 (ip), vehicle: saline); 100 % of control (dose: 6.0 mg/kg/injection, schedule: Q04DX003 (ip), vehicle: saline); 109 % of control (dose: 12.0 mg/kg/injection, schedule: Q04DX003 (ip), vehicle: saline); 118 % of control (dose: 17.0 mg/kg/injection, schedule: Q04DX003 (ip), vehicle: saline); 95 % of control (dose: 40.0 mg/kg/injection, schedule: Q04DX003 (ip), vehicle: saline).
Take `CN(C)C(=O)C1CCC1`: the T/C is 104 % of control under setting [2]; 90 % of control under setting [3]; 113 % of control (dose: 400.0 mg/kg/injection, schedule: Q01DX009 (ip), vehicle: saline with Tween-80).
